Consider 12 compounds from US5593970A, “Heterocyclic anthracycline analogs” (priority 1994, dated 1997).

Some test systems named below: SKOV3; T47D; LOX; HT29.
Experiment in all cases: Microculture tetrazolium assay
Common to all, as to assay type: cell-based

The next test relates to SKVLB. To be noted: for VLB/OV3: IC50 ratio SKVLB/SKOV3; for IC50: SKVLB.
The mark [1] stands for this setting: Homo sapiens, SK-OV-3, SKOV3, read-out: IC50.
[2] abbreviates: Homo sapiens, HT-29, HT29, read-out: IC50.

Values joined by “and” are separate entries in the source; they are usually repeats but may differ in a detail not shown here. Identical values can stand only once. Counter-ions that a name gives are not always drawn. Like-named read-outs stand apart in the source and are kept apart here.

Broadly, the IC50 is the concentration that inhibits the measured activity by half. On to “1S,3R-Methyl(1-[2',3',6'-trideoxy-3'-trifluoroacetamido-4'-hydroxy-1,5-dihydro-L-lyxohexopyranose-2-yl)-6,11-dioxo-3,4,5,12-tetrahydroanthraceno[2,3- c]pyran-3-yl)ketone [BCH-2156]”, for which the IC50 in the test on SKOV3 (SKOV3, read-out: IC50) was 3410 nM; in the test on SKVLB (read-out: IC50), 5360 nM; in the test with T47D (read-out: IC50) it was 2710 nM; in the test on LOX (read-out: IC50), 375 nM; in the test with HT29 (HT29, read-out: IC50), 1190 nM. Also, the VLB/OV3 in the test with SKVLB worked out at 1.57.

Consider `CC(=O)C1CC2=C(C(=O)c3cc4ccccc4c(O)c3C2=O)C(O[C@H]2C[C@H](NC(=O)C(F)(F)F)[C@H](OC(=O)c3ccc([N+](=O)[O-])cc3)[C@H](C)O2)O1` (mixture of isomers) [BCH-1122, (1S',1R,3S) and (1'S,1S,3R)-methyl (6-hydroxy-1-(2',3',6'-trideoxy-3'-trifluoroacetamido-4'-O-p-nitrobenzoyl-L-lyxohexopyranose)-6-hydroxy-5,12-dioxo-3,4,5,12-tetra-hydroanthraceno[2,3-C]pyran-3-yl) ketone], for which the IC50 was 4270 nM with SKOV3 (setting [1]); 14700 nM in the test on SKVLB (read-out: IC50); 6790 nM with T47D (Homo sapiens, read-out: IC50); 2140 nM with LOX (read-out: IC50); above 100000 nM with HT29 (setting [2]). In addition, the VLB/OV3 in the test on SKVLB worked out at 3.44.

`CC(=O)C1Cc2c(O)c3c(c(O)c2C(O[C@H]2C[C@H](NC(=O)C(F)(F)F)[C@H](O)[C@H](C)O2)O1)C(=O)c1ccccc1C3=O` (mixture of isomers) [BCH-1131, (1'S,1S,3R) and (1'S,1R,3S)-Methyl-[5,12-dihydroxy-1-(2',3',6'-trideoxy-3'-trifluoroacetamido-4'-hydroxy-L-lyxohexopyranose)-6,11-dioxo-3,4,6,11,tetrahydroanthraceno-(2,3-C)pyran-3-yl]ketone]: the IC50 is 4580 nM in the test with SKOV3 (setting [1]); 11200 nM with SKVLB (read-out: IC50); 9480 nM in the test with T47D (Homo sapiens, read-out: IC50); 4830 nM with LOX (read-out: IC50); 6930 nM in the test on HT29 (setting [2]). Besides, the VLB/OV3 in the test on SKVLB was determined as 2.45.

Take `COC(=O)[C@@H](N)COC1OC(C(C)=O)CC2=C1C(=O)c1cc3ccccc3c(O)c1C2=O` (mixture of isomers) [BCH-1657, (1S,2'S,3R) and (1R, 2'S,3S)-Methyl-{6-hydroxyl-1[O-serinemethyl ester]-5,12-dioxo-3,4,5,12-tetrahydroanthraceno-[2,3-c]pyran-3-yl}ketone hydrochloride salt]: the IC50 in the test on SKOV3 (setting [1]) was found to be 573 nM; in the test on SKVLB (read-out: IC50), 4250 nM; in the test on T47D (Homo sapiens, read-out: IC50) it was 3110 nM; in the test on LOX (read-out: IC50) it was 2410 nM; in the test with HT29 (setting [2]), 2590 nM. Also, in the test with SKVLB, the VLB/OV3 was found to be 7.42.

Consider `CC(=O)[C@@H]1CC2=C(C(=O)c3cc4ccccc4c(O)c3C2=O)[C@@H](O[C@H]2C[C@H](NC(=O)C(F)(F)F)[C@H](O)[C@H](C)O2)O1` [BCH-730, (1S',1R,3S)-Methyl-(6-hydroxy-1-(3'-trifluoroacyldaunosamine)-5,12-dioxo-3,4,5,12-tetrahydroanthraceno[2,3-C]pyran-3-yl) ketone], for which the IC50 in the test on SKOV3 (setting [1]) was 3520 nM; in the test on SKVLB (read-out: IC50), 2010 nM and 2880 nM; in the test with T47D (Homo sapiens, read-out: IC50), 3620 nM; in the test with T47D (read-out: IC50) it was 3080 nM; with LOX, 1780 nM; in the test on LOX (read-out: IC50), 1660 nM.

Consider `CC(=O)[C@@H]1CC2=C(C(=O)c3cc4ccccc4c(O)c3C2=O)[C@@H](O[C@H]2C[C@H](N)[C@H](O)[C@H](C)O2)O1` [BCH-1128], for which the IC50 is 874 nM with SKOV3 (setting [1]); 1200 nM with SKOV3 (SKOV3, read-out: IC50); 1400 nM and 2200 nM in the test on SKVLB (read-out: IC50); 1310 nM in the test with T47D (Homo sapiens, read-out: IC50); 1910 nM in the test on T47D (read-out: IC50); 850 nM and 493 nM with LOX (read-out: IC50). Moreover, the VLB/OV3 in the test on SKVLB was 1.60 and 1.83.

On to `CC(=O)[C@@H]1Cc2c(O)c3c(c(O)c2[C@@H](O[C@H]2C[C@H](N)[C@H](O)[C@H](C)O2)O1)C(=O)c1ccccc1C3=O` [BCH-1194, (1'S,1R,3S)-Methyl-[5,12-dihydroxy-1-(2',3',6'-trideoxy-3'-amino-4'-hydroxy-L-lyxohexopyranose)-6,11-dioxo-3,4,6,11-tetrahydroanthraceno-(2,3-C)pyran-3-yl]ketone hydrochloride], for which the IC50 worked out at 5.6 nM in the test with SKOV3 (setting [1]); 1460 nM in the test with SKVLB (read-out: IC50); 43.9 nM in the test with T47D (Homo sapiens, read-out: IC50); 62.3 nM in the test on LOX (read-out: IC50). In addition, the VLB/OV3 in the test with SKVLB is listed as 260.71.

Regarding `CC(=O)[C@H]1Cc2c(O)c3c(c(O)c2[C@H](O[C@H]2C[C@H](N)[C@H](O)[C@H](C)O2)O1)C(=O)c1ccccc1C3=O` [BCH-1195, (1'S,1S,3R)-Methyl-[5,12-dihydroxy-1-(2',3',6'-trideoxy-3'-amino-4'-hydroxy-L-lyxohexopyranose)-6,11,dioxo-3,4,6,11-tetrahydroanthraceno-(2,3-C)pyran-3-yl]ketone hydrochloride], the IC50 amounted to 672 nM in the test with SKOV3 (setting [1]); 3350 nM with SKVLB (read-out: IC50); 1410 nM with T47D (Homo sapiens, read-out: IC50); 741 nM in the test with LOX (read-out: IC50). Besides, the VLB/OV3 in the test on SKVLB was found to be 4.99.

Consider `CC[C@@H]1CC2=C(C(=O)c3cc4ccccc4c(O)c3C2=O)[C@@H](O[C@H]2C[C@H](NC(=O)C(F)(F)F)[C@H](O)[C@H](C)O2)O1` [BCH-1606, (1'S,1R,3R)-5,12-dioxo-3-ethyl-6-hydroxy-1-(2',3',6'-trideoxy-3'-trifluoroacetamido-4'-hydroxy-L-lyxohexopyranose)-3,4,5,12-tetrahydroanthraceno[2,3-c]pyran], for which the IC50 in the test with SKOV3 (setting [1]) is 1130 nM; in the test with SKVLB (read-out: IC50), 3260 nM; in the test with T47D (Homo sapiens, read-out: IC50) it was 1330 nM; in the test on LOX (read-out: IC50), 891 nM. The VLB/OV3 with SKVLB is recorded as 2.88.

For `CC[C@H]1CC2=C(C(=O)c3cc4ccccc4c(O)c3C2=O)[C@H](O[C@H]2C[C@H](N)[C@H](O)[C@H](C)O2)O1` [BCH-1610, (1'S,1S,3S)-5,12-dioxo-3-ethyl-6-hydroxy-1-(2',3',6'-trideoxy-3'-amino-4'-hydroxy-L-lyxohexopyranose)-3,4,5,12-tetrahydroanthraceno[2,3-c]pyran hydrochloride], the IC50 in the test on SKOV3 (Homo sapiens, SK-OV-3, SKOV3) was 839 nM; in the test with SKVLB, 2770 nM; in the test with T47D (Homo sapiens) it was 1360 nM; in the test on LOX, 845 nM. Besides, the VLB/OV3 in the test on SKVLB stood at 3.30.

With `C=CC[C@H]1Cc2c(O)c3c(c(O)c2[C@H](O[C@H]2C[C@H](NC(=O)NCCCl)[C@H](O)[C@H](C)O2)O1)C(=O)c1ccccc1C3=O` [BCH-2110], the IC50 worked out at 2480 nM with SKOV3 (Homo sapiens, SK-OV-3, SKOV3); 2830 nM in the test with SKVLB; 2460 nM with T47D (Homo sapiens); 1510 nM with HT29 (Homo sapiens, HT-29, HT29). In the test on SKVLB, the VLB/OV3 came out at 1.14.

With `CC(=O)C1Cc2c(O)c3c(c(O)c2C(OC2CCC(NC(=O)N(CCCl)N=O)CC2)O1)C(=O)c1ccccc1C3=O` [BCH-2116, (1R,3S) and (1S ,3R)-3-aceto-6,11-dioxo-5,12-dihydroxy-1(4-chloroethylnitrosoureido-cyclohexyl-oxy)-3,4,6,11-tetrahydro-1H-anthra[2,3-C]pyran], the IC50 was found to be 18700 nM in the test with SKOV3 (Homo sapiens, SK-OV-3, SKOV3); 50100 nM in the test with SKVLB; 22700 nM in the test on T47D (Homo sapiens); 23300 nM in the test with HT29 (Homo sapiens, HT-29, HT29). The VLB/OV3 in the test on SKVLB worked out at 2.68.
